According to PMC3072462 (Journal of medicinal chemistry, 2011):
pEC50, pIC50: −log10 of the molar value. Several values for one entry are separate records, joined by “and”; a condition that tells them apart may be missing. Identical values can stand only once. Like-named read-outs stand apart in the source and are kept apart here.

Columns and labels:
[1] = biological target: T1, recombinant HIV-1 IN (3′P) (Human immunodeficiency virus type 1 group M subtype B, UniProt P04585); assay: In vitro integrase catalytic gel assay, 3′ processing; type: biochemical
[2] = biological target: T2, recombinant HIV-1 IN (ST) (Human immunodeficiency virus type 1 group M subtype B, UniProt P04585); assay: In vitro integrase catalytic gel assay, strand transfer; type: biochemical
[3] = test system: HIV-1IIIB; assay: HIV cytoprotection; details: for activity against HIV-1 (in words): 10 μM, CEM-SS cells; for TI (therapeutic index, CC50/EC50): HIV-1IIIB in CEM-SS cells
[4] = Compound cytotoxicity / cell viability in CEM-SS cells; type: cell-based; details: human
[5] = test system: HIV IN mutant Y143R; details: values from two independent experiments
[6] = biological target: T2, recombinant HIV-1 IN (ST); details: cited from earlier work
[7] = biological target: T1, recombinant HIV-1 IN (3′P); details: read-out: IN IC50 3′P, gel assay; cited from earlier work
[8] = test system: MT-4 cells; type: cell-based; details: human
[9] = test system: HIV IN mutant Y143R; details: values from two independent experiments; cited from earlier work
[10] = test system: HIV-1IIIB; details: HIV-1IIIB in CEM-SS cells, cited from earlier work
[11] = test system: CEM-SS cells; details: single concentration 10 μM; cited from earlier work
[12] = test system: raltegravir-resistant HIV-1 strain 1556-1 (Y143C); details: virus 1556-1, Y143C; NL4-3 based, MT-4 cells; cited from earlier work
[13] = test system: HIV-1NL4-3 strain Y181C; assay: Antiviral assay with NNRTI-resistant strain in MAGI R5 cells; type: cell-based; details: HIV-1NL4-3 Y181C (NNRTI resistance)
[14] = test system: HIV-1NL4-3 strain K103N; assay: as above; type: cell-based; details: HIV-1NL4-3 K103N (NNRTI resistance)

For `CCc1c(Cc2ccccc2)n(Cc2ccc(F)cc2)c(=O)n(O)c1=O` [Compound 68, 6-Benzyl-5-ethyl-1-(4-fluorobenzyl)-3-hydroxypyrimidine-2,4(1H,3H)-dione], the pIC50 [1] was less than 3.95.

With `CC(C)c1c(Cc2ccccc2)n(COCCCCc2ccc(F)cc2)c(=O)n(O)c1=O` [Compound 30, 6-Benzyl-1-((4-(4-fluorophenyl)butoxy)methyl)-3-hydroxy-5-isopropylpyrimidine-2,4(1H,3H)-dione] the pIC50 [1] was less than 3.95.

In the case of `CCc1c(Cc2ccccc2)n(Cc2ccccc2)c(=O)n(O)c1=O` [Compound 67, 1,6-Bibenzyl-5-ethyl-3-hydroxypyrimidine-2,4(1H,3H)-dione], the pIC50 [1] was less than 3.95 and the “inhibitory activity against IN (in words)” value (“inhibitory activity” below) [2] was “complete loss of inhibition”.

In the case of `CC(C)c1c(Cc2ccccc2)n(CCCCc2ccc(F)cc2)c(=O)n(O)c1=O` [Compound 44, 6-Benzyl-1-(4-(4-fluorophenyl)butyl)-3-hydroxy-5-isopropylpyrimidine-2,4(1H,3H)-dione], the “activity against HIV-1 (in words)” value [3] was “only marginal activity” and the pIC50 [1] was less than 3.95.

With `CC(C)c1c(Cc2ccccc2)n(COCc2ccc(F)cc2F)c(=O)n(O)c1=O` [Compound 12, 6-Benzyl-1-((2,4-difluorobenzyloxy)methyl)-3-hydroxy-5-isopropylpyrimidine-2,4(1H,3H)-dione] the “TI (therapeutic index, CC50/EC50)” value [3] was greater than 47, the pIC50 [1] was less than 3.95 and the viability at 6 days, 10 µM [4] was 100%.

With `Cc1nnc(C(=O)NC(C)(C)c2nc(C(=O)NCc3ccc(F)cc3)c(O)c(=O)n2C)o1` [Compound 1, raltegravir, reference compound] the “Fold-resistance IC50(mutant)/IC50(WT)” value [5] was 28.

`CC(C)c1c(Cc2ccccc2)n(CCc2ccc(F)cc2)c(=O)n(O)c1=O` [Compound 42, 6-Benzyl-1-(4-fluorophenethyl)-3-hydroxy-5-isopropylpyrimidine-2,4(1H,3H)-dione] showed a pIC50 [1] of less than 3.95.

Work on `Cc1cn(Cc2ccc(F)cc2)c(=O)n(O)c1=O` [Compound 70, 1-(4-Fluorobenzyl)-3-hydroxy-5-methylpyrimidine-2,4(1H,3H)-dione] yielded a pIC50 [1] of less than 3.95.

For `CC(C)c1c(Cc2ccccc2)n(Cc2ccc(F)cc2)c(=O)n(O)c1=O` [Compound 32, 6-Benzyl-1-(4-fluorobenzyl)-3-hydroxy-5-isopropylpyrimidine-2,4(1H,3H)-dione], the pIC50 [1] was less than 3.95.

For `CC(C)c1c(Cc2ccccc2)n(COCc2ccc(F)cc2)c(=O)n(C)c1=O` [Compound 10, 6-Benzyl-1-((4-fluorobenzyloxy)methyl)-5-isopropyl-3-methylpyrimidine-2,4(1H,3H)-dione], the pIC50 [1] was less than 3.95.

In the case of `CCc1c(Cc2ccccc2)n(COCc2ccccc2)c(=O)n(O)c1=O` [Compound 53, 6-Benzyl-1-(benzyloxymethyl)-5-ethyl-3-hydroxypyrimidine-2,4(1H,3H)-dione], the pIC50 [1] was less than 3.95.

`CC(C)c1c(Cc2ccccc2)n(COCCc2ccc(F)cc2)c(=O)n(O)c1=O` [Compound 28, 6-Benzyl-1-((4-fluorophenethoxy)methyl)-3-hydroxy-5-isopropylpyrimidine-2,4(1H,3H)-dione] showed a pIC50 [1] of less than 3.95.

For `CC(C)c1c(Cc2ccccc2)n(COCc2ccccc2)c(=O)n(N)c1=O` [Compound 15, 3-Amino-6-benzyl-1-(benzyloxymethyl)-5-isopropylpyrimidine-2,4(1H,3H)-dione], the “inhibitory activity” value [6] is given as “completely devoid of inhibitory activity” and the pIC50 [7] is given as less than 3.95.

With `CCc1c(Cc2ccccc2)c(=O)n(O)c(=O)n1COCc1ccccc1` [Compound 55, 5-Benzyl-1-(benzyloxymethyl)-6-ethyl-3-hydroxypyrimidine-2,4(1H,3H)-dione] the pIC50 [1] was less than 3.95 and the “fold increase of IC50 value on swapping C5 and C6 substituents” value ([2]; ST, 55 vs 53) was 4 fold.

With `CC(C)c1c(Cc2ccccc2)n(COCc2cccc(Cl)c2F)c(=O)n(O)c1=O` [Compound 13, 6-Benzyl-1-((3-chloro-2-fluorobenzyloxy)methyl)-3-hydroxy-5-isopropylpyrimidine-2,4(1H,3H)-dione] the “Fold-resistance IC50(mutant)/IC50(WT)” value [5] was 7, the “TI (therapeutic index, CC50/EC50)” value [3] was greater than 105 and the pIC50 [1] was less than 3.95. For the same compound, the “TC50 (toxicity observed)” value [8] was “c Toxicity observed (TC50 = 2.0 μM)” and the viability at 6 days, 10 µM [4] was 100%.

With `Cc1cn(COCc2ccccc2)c(=O)n(O)c1=O` [Compound 54, 1-(Benzyloxymethyl)-3-hydroxy-5-methylpyrimidine-2,4(1H,3H)-dione] the pIC50 [1] was less than 3.95.

In the case of `CC(C)c1c(Cc2ccc(F)cc2)n(COCc2ccccc2)c(=O)n(O)c1=O` [Compound 51, 1-(Benzyloxymethyl)-6-(4-fluorobenzyl)-3-hydroxy-5-isopropylpyrimidine-2,4(1H,3H)-dione], the “TI (therapeutic index, CC50/EC50)” value [3] was greater than 18, the pIC50 [1] was less than 3.95 and the viability at 6 days, 10 µM [4] was 100%.

For `CC(C)c1c(Cc2ccccc2)n(COCc2ccc(F)cc2)c(=O)n(O)c1=O` [Compound 4, 6-Benzyl-1-((4-fluorobenzyloxy)methyl)-3-hydroxy-5-isopropylpyrimidine-2,4(1H,3H)-dione], the “Fold-resistance IC50(mutant)/IC50(WT)” value [9] is listed as 7 and 4, the “TI (therapeutic index, CC50/EC50)” value [10] is listed as greater than 833 and the pEC50 ([10]; read-out: EC50 (concentration inhibiting virus replication by 50%), dose response) is listed as 7.62. The “CPE Reduction (%)” value ([10]; single concentration 10 μM) was 100%, the “Cell Viability (%)” value [11] was 100% and the pIC50 [7] was less than 3.95. For the same compound, the “fold improvement in IN inhibition over the unsubstituted compound 11” value ([2]; ST, 4 vs 11) was 6 fold and the “Fold-resistance EC50(mutant)/EC50(WT)” value [12] was 5.9.

`CC(C)c1c(Cc2ccccc2)n(COCc2ccc(F)cc2)c(=O)[nH]c1=O` [Compound 9, 6-Benzyl-1-((4-fluorobenzyloxy)methyl)-5-isopropylpyrimidine-2,4(1H,3H)-dione] gave a pIC50 [1] of less than 3.95.

Compound `CC(C)c1c(Cc2ccccc2)n(COCCCc2ccc(F)cc2)c(=O)n(O)c1=O` [Compound 29, 6-Benzyl-1-((3-(4-fluorophenyl)propoxy)methyl)-3-hydroxy-5-isopropylpyrimidine-2,4(1H,3H)-dione] has a pIC50 [1] of less than 3.95.

For `Cc1cn(Cc2ccccc2)c(=O)n(O)c1=O` [Compound 69, 1-Benzyl-3-hydroxy-5-methylpyrimidine-2,4(1H,3H)-dione], the pIC50 [1] was less than 3.95.

For `CC(C)c1c(Cc2ccc(F)cc2)n(COCc2ccc(F)cc2)c(=O)n(O)c1=O` [Compound 52, 6-(4-Fluorobenzyl)-1-((4-fluorobenzyloxy)methyl)-3-hydroxy-5-isopropylpyrimidine-2,4(1H,3H)-dione], the pIC50 [1] was less than 3.95.

In the case of `CC(C)c1c(Cc2ccccc2)n(CCCc2ccc(F)cc2)c(=O)n(O)c1=O` [Compound 43, 6-Benzyl-1-(3-(4-fluorophenyl)propyl)-3-hydroxy-5-isopropylpyrimidine-2,4(1H,3H)-dione], the “activity against HIV-1 (in words)” value [3] was “only marginal activity” and the pIC50 [1] was less than 3.95.

For `O=c1c2ccccc2n(Cc2ccc(F)cc2)c(=O)n1O` [Compound 76], the pIC50 [1] was less than 3.95, the pIC50 [2] was less than 3.95 and the “inhibitory activity” value [2] was “completely inactive”.

Work on `CC(C)c1c(Cc2ccc(F)cc2)n(Cc2ccc(F)cc2)c(=O)n(O)c1=O` [Compound 65, 1,6-Bis(4-fluorobenzyl)-3-hydroxy-5-isopropylpyrimidine-2,4(1H,3H)-dione] yielded a pIC50 [1] of less than 3.95.

In the case of `CC(C)c1c(Cc2ccccc2)n(COCc2ccccc2)c(=O)n(O)c1=O` [Compound 11, 6-Benzyl-1-(benzyloxymethyl)-3-hydroxy-5-isopropylpyrimidine-2,4(1H,3H)-dione], the pIC50 [7] is given as less than 3.95.

In the case of `COn1c(=O)c(C(C)C)c(Cc2ccccc2)n(COCc2ccc(F)cc2)c1=O` [Compound 14, 6-Benzyl-1-((4-fluorobenzyloxy)methyl)-5-isopropyl-3-methoxypyrimidine-2,4(1H,3H)-dione], the pIC50 [1] was less than 3.95.

With `CC(C)c1c(Cc2ccc(F)cc2)n(Cc2ccccc2)c(=O)n(O)c1=O` [Compound 64, 1-Benzyl-6-(4-fluorobenzyl)-3-hydroxy-5-isopropylpyrimidine-2,4(1H,3H)-dione] the pIC50 [1] was less than 3.95.

With `O=c1c2ccccc2n(Cc2ccccc2)c(=O)n1O` [Compound 75] the pIC50 [1] was less than 3.95, the pIC50 [2] was less than 3.95 and the “inhibitory activity” value [2] was “completely inactive”.

In the case of `CCc1c(Cc2ccccc2)c(=O)[nH]c(=O)n1COCc1ccccc1` [Compound 49, 5-Benzyl-1-(benzyloxymethyl)-6-ethylpyrimidine-2,4(1H,3H)-dione], the viability at 6 days, 10 µM [4] was 100%.

In the case of `CCc1c(Cc2ccccc2)c(=O)n(O)c(=O)n1COCc1ccc(F)cc1` [Compound 56, 5-Benzyl-6-ethyl-1-((4-fluorobenzyloxy)methyl)-3-hydroxypyrimidine-2,4(1H,3H)-dione], the pIC50 [1] was less than 3.95.

Work on `CC(C)c1c(Cc2ccccc2)n(Cc2ccccc2)c(=O)n(O)c1=O` [Compound 66, 1,6-Bibenzyl-3-hydroxy-5-isopropylpyrimidine-2,4(1H,3H)-dione] yielded a pIC50 [1] of less than 3.95.

With `CC(C)c1c(Cc2ccccc2)n(COCc2ccccc2)c(=O)[nH]c1=O` [TNK-651] the fold-resistance [13] was 72 and the fold-resistance [14] was 22.
